Tests used:
Carbonic anhydrase 2 = Carbonic anhydrase 2 (Homo sapiens, UniProt P00918)
Carbonic anhydrase 9 = Carbonic anhydrase 9 (Homo sapiens, UniProt Q16790)
Carbonic anhydrase 1 = Carbonic anhydrase 1 (Homo sapiens, UniProt P00915)
Chain of Carbonic anhydrase 1 (P00915 whole entry): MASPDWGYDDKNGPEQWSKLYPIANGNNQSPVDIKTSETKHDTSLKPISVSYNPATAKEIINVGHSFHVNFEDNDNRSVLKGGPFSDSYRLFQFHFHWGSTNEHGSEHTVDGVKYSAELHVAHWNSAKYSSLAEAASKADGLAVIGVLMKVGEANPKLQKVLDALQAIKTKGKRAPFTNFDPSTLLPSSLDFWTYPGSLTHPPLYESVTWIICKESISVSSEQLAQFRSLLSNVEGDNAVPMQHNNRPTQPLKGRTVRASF

Structure (SMILES) | Ki (Carbonic anhydrase 2) [nM] | Ki (Carbonic anhydrase 9) [nM] | Ki (Carbonic anhydrase 1) [nM]
NS(=O)(=O)c1ccc(Nc2nc(=O)[nH]c(=O)[nH]2)cc1 | 278 | 142 | 103
CCOc1nc(NCc2ccc(S(N)(=O)=O)cc2)nc(OCC)n1 | 84 | 0.34 | 110
CNc1nc(NC)nc(NCCc2ccc(S(N)(=O)=O)cc2)n1 | 27 | 1.1 | 88
COc1nc(NCCc2ccc(S(N)(=O)=O)cc2)nc(OC)n1 | 21 | 162 | –
NS(=O)(=O)c1ccc(CNc2nc(=O)[nH]c(=O)[nH]2)cc1 | 130 | 360 | 94
COc1nc(NCc2ccc(S(N)(=O)=O)cc2)nc(OC)n1 | 112 | 155 | 116
CNc1nc(NC)nc(NCc2ccc(S(N)(=O)=O)cc2)n1 | 15 | 1.3 | 90
CNc1nc(NC)nc(Nc2ccc(S(N)(=O)=O)cc2)n1 | – | – | 83
NS(=O)(=O)c1ccc(CCNc2nc(Cl)nc(Cl)n2)cc1 | 21 | 138 | 75
NS(=O)(=O)c1ccc(CCNc2nc(=O)[nH]c(=O)[nH]2)cc1 | 98 | 549 | 96
CCOc1nc(Nc2ccc(S(N)(=O)=O)cc2)nc(OCC)n1 | 20 | 0.12 | 78
COc1nc(Nc2ccc(S(N)(=O)=O)cc2)nc(OC)n1 | 36 | 150 | 85
NS(=O)(=O)c1ccc(Nc2nc(Cl)nc(Cl)n2)cc1 | – | 0.15 | –
CCOc1nc(NCCc2ccc(S(N)(=O)=O)cc2)nc(OCC)n1 | 23 | – | 82

Reference: ChEMBL document CHEMBL1138005, “Carbonic anhydrase inhibitors: synthesis and inhibition of cytosolic/tumor-associated carbonic anhydrase isozymes I, II, and IX with sulfonamides incorporating 1,2,4-triazine moieties” (Bioorg Med Chem Lett, 2004)
